Converted amounts (≈) assume the structure as drawn.
Tests used:
[1] = Kinetic aqueous solubility in pH 7.4 50 mM phosphate buffer; format: physicochemical; conditions: read-out: Kinetic_solubility
[2] = Protein binding in rat plasma by equilibrium dialysis; format: ADME, cell-free; conditions: read-out: PPB (converted)
[3] = tested on: Mus musculus; experiment: In-vivo inhibition of TPH1 in mouse assessed as 5-HT level in intestinal mucosa at 150 mg/kg, po administered as single dose relative to control; format: functional; parameters: scale not given: the % may be the effect or the level left

Structure (SMILES)	solubility kinetic [1] [µM]	fraction unbound [2]	Activity [3] [%]
CCOC(=O)[C@@H](N)Cc1ccc(C(=O)/N=C(\N)NCc2c(Oc3ccccc3)cccc2N2CCCCC2)cc1			62
Cc1cccc(N2CCCCCC2)c1CN/C(N)=N/C(=O)c1ccc(C[C@H](N)C(=O)O)cc1	40 (≈ 18.1 µg/mL)		72
N/C(=N\C(=O)c1ccc(C[C@H](N)C(=O)O)cc1)NCc1c(Oc2ccccc2)cccc1N1CCCCC1			80
CCOC(=O)[C@@H](N)Cc1ccc(C(=O)/N=C(\N)NCc2c(C)cccc2N2CCCCCC2)cc1			62
Nc1nc(OC(c2ccc(-c3cccc(F)c3)cc2)C(F)(F)F)cc(-c2ccc(C[C@H](N)C(=O)O)cc2)n1 (stereo not given in full)	2.1 (≈ 1.11 µg/mL)	< 0.001	

Second part, led by results:

solubility kinetic [1] [µM]	fraction unbound [2]	Structure (SMILES)	Activity [3] [%]
> 40	0.12	COc1cccc(Oc2cccc(N3CCCCC3)c2CN/C(N)=N/C(=O)c2ccc(C[C@H](N)C(=O)O)cc2)c1	
16 (≈ 7.99 µg/mL)		N/C(=N\C(=O)c1ccc(C[C@H](N)C(=O)O)cc1)NCc1cc(-c2ccccc2)ccc1N1CCCCC1	

From ChEMBL document CHEMBL3797153, “Discovery of acyl guanidine tryptophan hydroxylase-1 inhibitors” (Bioorg Med Chem Lett, 2016)
